# Results taken from patent US20040157738A1, “Novel oxygen containing fused cyclic derivatives and herbicidal, desiccant and defoliate compositions containing them” (ISHIHARA SANGYO KAISHA, LTD., priority 2003, published 2004).
# Assays:
# Assay type in all cases: in vivo
# [1] = test system: green foxtail (Setaria viridis L.), SETVI; assay: Test Example 2: post-emergence (foliage treatment) herbicidal activity (growth controlling degree); conditions: 1.7-2.5 leaf stage
# From the text: (§1) Upland field soil was put into a 1/170,000 ha pot, and seeds of various plants were sown. Then, when the plants reached predetermined leaf stages [I. barnyardgrass (Echinochloa crus-galli L.), ECHCG: 1.8-2.4 leaf stage, 2. crabgrass (Digitaria sanguinalis L.), DIGSA: 1.5-2.2 leaf stage, 3. green foxtail (Setaria viridis L.), SETVI: 1.7-2.5 leaf stage, 4. redroot pigweed (Amaranthus retroflexus L.), AMARE: 0.1-0.3 leaf stage, 5. prickly sida (Sida spinosa L.), SIDSP: 0.3-0.5 leaf stage, 6. velvetleaf (Abutilon theophrasti), ABUTH: 0.3-0.4 leaf stage, 7. common cocklebur (Xanthium strumarium L.), XANST: 0.2-0.6 leaf stage, 8. rice (Oryza sativa L.), ORYSA: 1.6-2.2 leaf stage, 9. wheat (Triticum aestivum L.), TRZAX: 2.8 leaf stage, 10. corn (Zea mays L.), ZEAMX: 2.2-2.5 leaf stage, 11. soybean (Glycine max Merr.), GLXMA: 0.2-0.3 leaf stage], a wettable powder or emulsifiable concentrate having the compound of the present invention formulated in accordance with a usual formulation method, was weighed so that the active ingredient would be a predetermined amount, and diluted with water in an amount of 500 L/ha. To the diluted solution, 0.1%(v/v) of an agricultural spreader was added. The herbicide adjusted was applied by a small size sprayer for foliage treatment. On the […] day after the application of the herbicide, the growth of the respective plants was visually observed, and the herbicidal effects were evaluated by growth controlling degrees (%) ranging from 0 (equivalent to the untreated control) to 100 (complete kill), whereby the results shown in Table 12, were obtained. Compound Nos. in Table 12 correspond to Compound Nos. in Table 1 to 7 given hereinbefore.
# [2] = test system: common cocklebur (Xanthium strumarium L.), XANST; assay: as above; conditions: Xanthium strumarium, 504 h, 31 g a.i./ha, 0.2-0.6 leaf stage
# From the text: as §1
# [3] = test system: redroot pigweed (Amaranthus retroflexus L.), AMARE; assay: as above; conditions: 0.1-0.3 leaf stage
# From the text: as §1
# [4] = test system: prickly sida (Sida spinosa L.), SIDSP; assay: as above; conditions: 0.3-0.5 leaf stage
# From the text: as §1
# [5] = test system: crabgrass (Digitaria sanguinalis L.), DIGSA; assay: as above; conditions: 1.5-2.2 leaf stage
# From the text: as §1
# [6] = test system: barnyardgrass (Echinochloa crus-galli L.), ECHCG; assay: as above; conditions: 1.8-2.4 leaf stage
# From the text: as §1
# [7] = test system: velvetleaf (Abutilon theophrasti), ABUTH; assay: as above; conditions: 0.3-0.4 leaf stage
# From the text: as §1
# [8] = test system: soybean (Glycine max Merr.), GLXMA; assay: as above; conditions: 0.2-0.3 leaf stage
# From the text: as §1
# [9] = test system: rice (Oryza sativa L.), ORYSA; assay: as above; conditions: 1.6-2.2 leaf stage
# From the text: as §1
# [10] = test system: corn (Zea mays L.), ZEAMX; assay: as above; conditions: 2.2-2.5 leaf stage
# From the text: as §1
# [11] = test system: barnyardgrass (Echinochloa oryzicola: ECHOR); assay: Test Example 3: water application herbicidal activity, paddy (growth controlling degree); conditions: rate 63 g a.i./ha, water application under submerged condition, paddy pot, barnyardgrass at 0.5 leaf stage
# From the text: (§2) Paddy field soil was put into a {fraction (1/1,000,000)} ha pot, and seeds of barnyardgrass (Echinochloa oryzicola: ECHOR) and japanese bulrush (Scirpus juncoides: SCPJO) were sown and slightly covered with soil. Then the pot was left to stand still in a greenhouse in a state where the depth of flooding water was from 0.5 to 1 cm, and one day later, tubers of japanese ribbon wapato (Sagittaria pygmaea: SAGPY) were planted. Thereafter, the depth of flooding water was maintained at a level of from 3 to 4 cm, and when barnyardgrass and japanese bulrush reached a 0.5 leaf stage, an aqueous diluted solution of a wettable powder or emulsifiable concentrate having the compound of the present invention formulated in accordance with a usual formulation method, was uniformly applied under submerged condition by a pipette so that the dose of the active ingredient would be at a predetermined level. On the other hand, paddy filed soil was put into a {fraction (1/1,000,000)} ha pot and puddled and leveled, and the depth of flooding water was from 3 to 4 cm. One day later, rice (Oryza sativa L.: ORYSA) of 2 leaf stage was transplanted in a depth of 3 cm. On the 4th day after the transplantation, the compound of the present invention was applied in the same manner as described above. On the 14th day after the application of the herbicide, the growth of barnyardgrass, japanese burlush and japanese ribbon wapato was visually observed and on the 21st day after the application of the herbicide, the growth of rice was visually observed, and the herbicidal effects were evaluated by growth controlling degrees (%) ranging from 0 (equivalent to the untreated control) to 100 (complete kill), whereby the results shown in Table 13, were obtained. Compound Nos. in Table 13 correspond to Compound Nos. in Table 1 to 7 given hereinbefore.
# [12] = test system: japanese ribbon wapato (Sagittaria pygmaea: SAGPY); assay: as above; conditions: rate 63 g a.i./ha; water application under submerged condition, paddy pot; tubers of japanese ribbon wapato planted
# From the text: as §2
# [13] = test system: rice (Oryza sativa L.: ORYSA); assay: as above; conditions: rate 63 g a.i./ha, paddy pot, rice of 2 leaf stage transplanted, treated on the 4th day after transplantation
# From the text: as §2
# [14] = test system: japanese bulrush (Scirpus juncoides: SCPJO); assay: as above; conditions: rate 63 g a.i./ha, water application under submerged condition, paddy pot, japanese bulrush at 0.5 leaf stage
# From the text: as §2
# [15] = test system: prickly sida (Sida spinosa L.): SIDSP; assay: Test Example 1: pre-emergence herbicidal activity (growth controlling degree); conditions: 500 g a.i./ha, 20th to 21st day after application
# From the text: (§3) Upland field soil was put into a 1/170,000 ha pot, and seeds of various plants [1. barnyardgrass (Echinochloa crus-galli L.): ECHCC, 2. crabgrass (Digitaria sanguinalis L.): DIGSA, 3. green foxtail (Setaria viridis L.): SETVI, 4. redroot pigweed (Amaranthus retroflexus L.): AMARE, 5. prickly sida (Sida spinosa L.): SIDSP, 6. velvetleaf (Abutilon theophrasti): ABUTH, 7. common cocklebur (Xanthium strumarium L.): XANST, 8. rice (Oryza sativa L.): ORYSA, 9. wheat (Triticum aestivum L.): TRZAX, 10. corn (Zea mays L.): ZEAMX, 11. soybean (Glycine max Merr.): GLXMA] were sown. Then, one day after the sowing, a wettable powder or emulsifiable concentrate having the compound of the present invention formulated in accordance with a usual formulation method, was weighed so that the active ingredient would be a predetermined amount, and diluted with water in an amount of 500 L/ha. The herbicide adjusted was applied by a small size sprayer for pre-emergence treatment. On the 20th to 21st day after the application of the herbicide, the growth of the respective plants was visually observed, and the herbicidal effects were evaluated by growth controlling degrees (%) ranging from 0 (equivalent to the untreated control) to 100 (complete kill), whereby the results shown in Table 11, were obtained. Compound Nos. in Table 11 correspond to Compound Nos. in Table 1 to 7 given hereinbefore.
# [16] = test system: common cocklebur (Xanthium strumarium L.): XANST; assay: as above; conditions: 500 g a.i./ha, 20th to 21st day after application
# From the text: as §3
# [17] = test system: redroot pigweed (Amaranthus retroflexus L.): AMARE; assay: as above; conditions: 500 g a.i./ha, 20th to 21st day after application
# From the text: as §3
# [18] = test system: rice (Oryza sativa L.): ORYSA; assay: as above; conditions: 500 g a.i./ha, 20th to 21st day after application
# From the text: as §3
# [19] = test system: crabgrass (Digitaria sanguinalis L.): DIGSA; assay: as above; conditions: 500 g a.i./ha, 20th to 21st day after application
# From the text: as §3
# [20] = test system: green foxtail (Setaria viridis L.): SETVI; assay: as above; conditions: 500 g a.i./ha, 20th to 21st day after application
# From the text: as §3
# [21] = test system: corn (Zea mays L.): ZEAMX; assay: as above; conditions: 500 g a.i./ha, 20th to 21st day after application
# From the text: as §3
# [22] = test system: barnyardgrass (Echinochloa crus-galli L.): ECHCC; assay: as above; conditions: 500 g a.i./ha, 20th to 21st day after application
# From the text: as §3
# [23] = test system: velvetleaf (Abutilon theophrasti): ABUTH; assay: as above; conditions: 500 g a.i./ha, 20th to 21st day after application
# From the text: as §3
smiles,measurement,setting,value
"Cn1nc(-c2c(F)cc(Cl)c3c2CCC(C)(C)O3)c(Cl)c1OC(F)F [Compound 1-40, 4-chloro-3-(8-chloro-6-fluoro-3,4-dihydro-2,2-dimethyl-2H-1-benzopyran-5-yl)-5-(difluoromethoxy)-1-methyl-1H-pyrazole]",pest or weed control at 31 g/ha,"[1]; Setaria viridis, 504 h, 31 g a.i./ha",100%
same,pest or weed control at 31 g/ha,[2],100%
same,"growth controlling degree, AMARE",[3]; 31 g a.i./ha,100%
same,pest or weed control at 31 g/ha,"[4]; Sida spinosa, 504 h, 31 g a.i./ha",100%
same,pest or weed control at 31 g/ha,"[5]; Digitaria sanguinalis, 504 h, 31 g a.i./ha, read-out: growth controlling degree, DIGSP",100%
same,pest or weed control at 31 g/ha,"[6]; Echinochloa crus-galli, 504 h, 31 g a.i./ha",100%
same,pest or weed control at 31 g/ha,"[7]; Abutilon theophrasti, 504 h, 31 g a.i./ha",100%
same,pest or weed control at 31 g/ha,"[8]; Glycine max, 504 h, 31 g a.i./ha",60%
same,plant injury at 31 g/ha,"[9]; Oryza sativa, 504 h, 31 g a.i./ha",70%
same,plant injury at 31 g/ha,"[10]; Zea mays, 504 h, 31 g a.i./ha",70%
same,pest or weed control at 63 g/ha,"[11]; Echinochloa oryzicola, 336 h",100%
same,Water Application Herbicidal Activity SAGPY (growth controlling degree),[12],95%
same,pest or weed control at 63 g/ha,"[13]; Oryza sativa, 504 h",35%
same,pest or weed control at 63 g/ha,"[14]; Schoenoplectiella juncoides, 336 h",100%
CC1CCc2c(c(Cl)cc(F)c2-c2ncc(C(F)(F)F)cc2Cl)O1 (centres unmarked) [Compound 7-4],"growth controlling degree, SIDSP",[15],100%
same,"growth controlling degree, XANST",[16],10%
same,"growth controlling degree, AMARE",[17],100%
same,"growth controlling degree, ORYSA",[18],30%
same,"growth controlling degree, DIGSP",[19],100%
same,"growth controlling degree, SETVI",[20],100%
same,"growth controlling degree, ZEAMX",[21],40%
same,"growth controlling degree, ECHCG",[22],70%
same,"growth controlling degree, ABUTH",[23],100%
same,"growth controlling degree, SETVI",[1]; 63 g a.i./ha,80%
same,"growth controlling degree, AMARE",[3]; 63 g a.i./ha,95%
same,"growth controlling degree, SIDSP",[4]; 63 g a.i./ha,80%
same,"growth controlling degree, DIGSP",[5]; 63 g a.i./ha,50%
same,"growth controlling degree, ECHCG",[6]; 63 g a.i./ha,50%
same,"growth controlling degree, ABUTH",[7]; 63 g a.i./ha,100%
same,"growth controlling degree, GLXMA",[8]; 63 g a.i./ha,50%
same,"growth controlling degree, ORYSA",[9]; 63 g a.i./ha,60%
same,"growth controlling degree, ZEAMX",[10]; 63 g a.i./ha,70%
same,Water Application Herbicidal Activity ECHOR (growth controlling degree),[11],70%
same,Water Application Herbicidal Activity ORYSA (growth controlling degree),[13],0%
same,Water Application Herbicidal Activity SCPJO (growth controlling degree),[14],90%
